According to US20030059511A1, “Sweetener compositions and uses thereof” (AJINOMOTO CO., INC., priority 1999, published 2003):

Key:
Format in all cases: in vivo, human
[1] = Measurement of the magnification of sweetness intensity in aqueous solution (sensory evaluation against sucrose solutions); details: for Amount equivalent to PSE 10% / intensity of sweetness, times that of sucrose (magnification of sweetness intensity): aqueous solution; for intensity of sweetness, times that of sucrose (magnification of sweetness intensity): about PSE 10%
Method: (§1) An aqueous solution was prepared by diluting derivative 2 to be PSE 10% concentration (15.5 mg/1000 ml=10/6500 g/100 ml), assuming that the intensity of sweetness of derivative 2 was 6500 times that of sucrose. Separately, aqueous sucrose solutions having sucrose concentrations of (a)6.94%, (b)8.33%, (c)10%, (d)12%, and (e)14.4% were prepared. The sensory evaluation was performed by determining which sucrose solution was closest to the solution of derivative 2 in the sweetness intensity. The result of calculation of the average of points of 20 panelists was 2.25 point.
(§2) The intensity of sweetness of the solution of derivative 2 was 8.75% according to the following equation: (10.0−8.33)×0.25+8.33=8.75. Accordingly, the intense sweetness of derivative 2 was 5600 (=8.75/0.00155) times that of sucrose. According to the same experiment, the intensity of sweetness of derivative 1 was 22600 times that of sucrose. Furthermore, the magnification of sweetness intensity of other derivatives (3 to 9) can be determined by the same method.
as §2, with “intensity of” for “intense”
as §1, with “intense” for “intensity of”
The sweetness intensity of the solution of derivative 2 was 8.75% according to the following equation: (10.0−8.33)×0.25+8.33=8.75. Therefore, the magnification of sweetness intensity of derivative 2 was 5600 (=8.75/0.00155) times that of sucrose. When the same experiment was performed, the magnification of sweetness intensity of derivative 1 was 22600 times that of sucrose.

[2] = Magnification of sweetness intensity in the cola drink (sensory evaluation against sucrose cola drinks); details: for magnification of sweetness intensity in the cola drink: vs cola drink containing 10% sucrose
Excerpt: And the magnification of sweetness intensity in the cola drink can be also determined by the same method compared to the control solution of cola drink containing 10% sucrose.
The composition of cola drink is as follows.
As for the concentration of the references, the sucrose concentrations of previous (a) to (e) were used. In consequence, the magnification of sweetness intensity in the cola drink of derivative 1 was 22600 times, and that of derivative 2 was 4900 times.
And the magnification of sweetness intensity in the cola drink can be also determined by the same method compared to the reference solution of cola drink containing 10% sucrose.
The components of cola drink is as follows.
As for the concentration of the references, the sucrose concentrations of previous (a) to (e) were used. As the results, the magnification of sweetness intensity in the cola drink of derivative 1 was 22600 times, and that of derivative 2 was 4900 times.
And the magnification of sweetness in the cola drink can be also determined by the same method compared to the control solution of cola drink containing 10% sucrose.
As for the concentration of the references, the sucrose concentrations of previous (a) to (e) were used. As a result, the magnification of sweetness intensity in the cola drink of derivative 1 was 22600 times, and that of derivative 2 was 4900 times.

[3] = Equations for calculating sweetness intensity and values calculated from them; details: for X when Y=6.3%: from the equation of the respective derivative; for concentration of the derivative of PSE 0.5%: from the cola drink equation of Example 17
Excerpt: For example, when preparing a solution having a intensity of sweetness equivalent to that of 10% sucrose, wherein 80% of the 10% of intensity of sweetness is from the sweetener component A and the residual 20% is from the sweetener component B, the sweetness ratio is A:B=8:2. When the sweetening magnification relative to sucrose varies depending on the composition and the concentration of the sweetener component is varied even if it is a same sweetener component (in this case, an exponential curve can be prepared and used for calculation), the objective weight of the sweetener component can be calculated. For example, if the equation for converting sweetness intensity (the exponential curve) component A is Y=aX^b, and the equation for converting sweetness intensity (the exponential curve)of component B is Y=cX^d, the weight ratio of the components A and B in the ratio A:B=8:2, can be determined using the following calculation, where Y is a concentration equivalent to that of sucrose (PSE %), and X is the sweetener component concentration (g/100 ml):
(§3) Equations for calculating sweetness intensity in the cola drink (pH 2.8, 20° C.) are as follows, wherein Y denotes the concentration equivalent to that of sucrose (g/100 ml) and X denotes the concentration of the sweetener (g/100 ml), respectively.
With regard to Acesulfame K, the magnification of sweetness intensity was determined according to the following equation for calculating sweetness intensity.
[Y: concentration equivalent to that of sucrose (g/100ml); X: concentration of Acesulfame K (g/100 ml)]
By using the equation for calculating sweetness intensity in the cola drink (refer to Example 4) and the equation for calculating sweetness intensity of Aspartame (refer to the monthly Journal “Food Chemical” August, page 35, 1997), the necessary amounts of those were calculated. In case of Aspartame, the values at 20° C., pH2.8 were used.
The equation for calculating sweetness intensity of derivative 1 in the aqueous solution is as follows.
Where, the calculation of the sweetness was made by using the equation for calculating sweetness intensity of derivative 4 Y=58775X^1.04. When Y=6.3%, X=0.00015 g/100 ml, When Y=5.1%, X=0.00012 g/100 ml.
as §3, with “Examples for equations” for “Equations”, “(pH2.8,” for “(pH 2.8,”, “follows, and another equations can be prepared in the same manner,” for “follows,”

Row | SMILES | Amount equivalent to PSE 10% [1] | Amount equivalent to PSE 10% [2] | X when Y=6.3% [3] | intensity of sweetness, times that of sucrose (magnification of sweetness intensity) [1] | magnification of sweetness intensity in the cola drink [2] | concentration of the derivative of PSE 0.5% [3] | also measured
1 | COC(=O)[C@H](Cc1ccccc1)NC(=O)[C@H](CC(=O)O)NCCC(C)(C)c1ccc(O)cc1 [Derivative 6, N-[N-[3-(4-hydroxyphenyl)-3-methylbutyl]-L-α-aspartyl]-L-phenylalanine 1-methyl ester] | 6.7 mg/1000 ml | 7.1 mg/1000 ml | – | – | – | – | X when Y=9.6% ([3]; from the equation of derivative 6): 0.000685 g/100 ml
2 | COC(=O)[C@H](Cc1ccccc1)NC(=O)[C@H](CC(=O)O)NCCC(C)(C)c1ccc(O)c(C)c1 [Derivative 4, N-[N-[3-(3-methyl-4-hydroxyphenyl)-3-methylbutyl]-L-α-aspartyl]-L-phenylalanine 1-methyl ester] | 2.3 mg/1000 ml | 3.4 mg/1000 ml | 0.00015 g/100 ml | – | – | – | X when Y=5.1% ([3]; from the equation of derivative 4): 0.00012 g/100 ml
3 | COC(=O)[C@H](Cc1ccccc1)NC(=O)[C@H](CC(=O)O)NCCCc1ccc(O)c(C)c1 [Derivative 8, N-[N-[3-(3-methyl-4-hydroxyphenyl)propyl]-L-α-aspartyl]-L-phenylalanine 1-methyl ester] | 5.5 mg/1000 ml | 6.3 mg/1000 ml | 0.00036 g/100 ml | – | – | – | X when Y=8.9% ([3]; from the equation of derivative 8): 0.00055 g/100 ml
4 | COC(=O)[C@H](Cc1ccccc1)NC(=O)[C@H](CC(=O)O)NCCCc1ccc(OC)cc1 [Derivative 2, N-[N-[3-(4-methoxyphenyl)propyl]-L-α-aspartyl]-L-phenylalanine 1-methyl ester] | 17.9 mg/1000 ml | 20.4 mg/1000 ml | – | 5600 times | 4900 times | 0.0000597 g/dL | intensity of sweetness of the solution ([1]; aqueous solution 15.5 mg/1000 ml, sucrose-equivalent concentration): 8.75%; average of points of 20 panelists ([1]; derivative 2 aqueous solution 15.5 mg/1000 ml, closest of sucrose solutions (a)6.94% to (e)14.4%): 2.25 point; magnification of sweetness intensity at PSE 4% ([3]; calculated, sweetener for tabletop use): 6000 times
5 | COC(=O)[C@H](Cc1ccccc1)NC(=O)[C@H](CC(=O)O)NCCCc1ccc(OC)c(O)c1 [Derivative 1, N-[N-[3-(3-hydroxy-4-methoxyphenyl)propyl] -L-α-aspartyl]-L-phenylalanine 1-methyl ester] | 4.5 mg/1000 ml | 4.5 mg/1000 ml | – | 22600 times | 22600 times | 0.0000434 g/dL | magnification of the sweetness intensity at PSE 5% ([3]; calculated, block ice of Example 12): 25600 times; X, concentration of the sweetener when Y=1 ([3]; cola drink, pH 2.8, 20° C.): 0.000074 g/100 ml; X, concentration of the sweetener when Y=2 ([3]; cola drink, pH 2.8, 20° C.): 0.00013 g/100 ml; X, concentration of the sweetener when Y=5 ([3]; cola drink, pH 2.8, 20° C.): 0.00026 g/100 ml; X, concentration of the sweetener when Y=8 ([3]; cola drink, pH 2.8, 20° C.): 0.00037 g/100 ml; X, concentration of the sweetener when Y=9.5 ([3]; cola drink, pH 2.8, 20° C.): 0.000425 g/100 ml
